In patent US11666600B2, “Methods for culturing and/or differentiating hematopoietic stem cells into progenitors and uses thereof” (HEMA-QUEBEC, priority 2015, dated 2023):

Legend:
cord blood CD34+ cells = assay: Expansion of CD34+/CD41+ megakaryocytic progenitors from cord blood CD34+ cells; assay type: cell-based, human; conditions: 39° C. + PIC2 500 nM; 14 days; SFEM + BS1; FIG. 7
Experimental: Human cord blood (CB) was collected after obtaining written informed consent from donors, following our institutional Research Ethics Committee guidelines. Mononuclear cells (MNCs) were first separated over a Ficoll-Hypaque™ density gradient (GE Healthcare), then cryopreserved at −180° C. in Cryostor CS10™ medium ([…] Technologies). Thawed MNCs from six to eight CB were pooled before CD34 isolation. CB CD34+ cells were enriched by positive selection using the EasySep™ CD34 enrichment kit, according to the manufacturer's instructions ([…] Technologies). […]
Cellular counts and viability were determined by adding Solution 18 (Acridine Orange and DAPI solution, ChemomMetec) and using NucleoCounter™ NC-250 for detection (ChemomMetec).
For cells expanded in conditions favoring differentiation towards the MK lineage, surface markers were detected using the following antibodies: CD34-FITC, CD41a-APC and CD42b-PE. […] All samples were analyzed on an Accuri™ C6 flow cytometer (BD Biosciences), and raw data were analyzed with FCS Express 5 Flow Research Edition software from at least 15 000 viable cell events acquired for each sample. […]
Cellular counts and viability were determined as described in Example 6.5. […]

[1] = tested on: aryl hydrocarbon receptor (AhR) pathway; conditions: Fares et al., 2014; cited from earlier work
[2] = tested on: CD34+/CD45RA− mobilized peripheral blood cells; conditions: Fares et al., 2014; cited from earlier work

COC(=O)c1ccc2c(c1)[nH]c1ncnc(NCCCN3CCCCC3)c12 [PIC2, Methyl 4-((3-(piperidin-1-yl)propyl)amino)-9H-pyrimido[4,5-b]indole-7-carboxylate]
combined use of mild hyperthermia and PIC2 on expansion of CB CD34+/CD41+ cells (cord blood CD34+ cells): synergistic effect | suppression of the aryl hydrocarbon receptor (AhR) pathway [1]: without acting as suppressors | expansion of CD34+/CD45RA− mobilized peripheral blood cells (enriched in LT-HSCs) [2]: stimulate expansion
